The values below come from US20260174762A1, “OLCEGEPANT FOR TREATING SEPSIS” (Boehringer Ingelheim International GmbH, priority 2022, published 2026).

Assay [1] has as its system CLP-induced polymicrobial sepsis. The assay is described as follows: Chronic model of CLP: survival rate. It is filed as in vivo, mouse. The following applies: 30 mg/kg s.c. 2 h after CLP induction and once daily from day 1 to day 6; 10 mice per group. The protocol: Two models were performed: • A cute model of CLP lasting 24 h to measure vascular hyper-permeability in lung, liver, kidney and heart tissue. The vascular hyper-permeability was followed by the extravasation of Evans blue injected intravenously and diffused and accumulated into the tissue. The vascular hyper-permeability was expressed as μg of Evans blue in 100 mg of dry tissue. • Chronic model of CLP lasting 8 days. CLP is performed on day 0 and the survival rate is followed for 8 consecutive days
On day 0, mice were anesthetized with ketamine (80 mg kg^−1, i.p.) and xylazine (10 mg kg^−1, i.p.). A 1-1.5 cm abdominal midline incision was made, and the caecum was located and tightly ligated at half the distance between distal pole and the base of the caecum with 4-0 silk suture (mild grade). The caecum was punctured through-and-through once with a 21-gauge needle after medium ligation. A small amount of stool was extruded to ensure that the wounds were patent. Then the cecum was replaced in its original position within the abdomen, which was closed with sutures in layers. For negative control animals, a sham surgery was performed: sham-operated animals underwent identical laparotomy but without cecal ligation or puncture. The animals were resuscitated immediately after surgery with 1 mL subcutaneous normal saline and returned to their cages. […]

For another assay, the system named is mouse CLP model. The following applies: WO 2018/154015, cited from earlier work.
The subject of another assay is pig sepsis model. The note with it: intravenous bolus injection; cited from earlier work.

`NCCCC[C@H](NC(=O)[C@@H](Cc1cc(Br)c(O)c(Br)c1)NC(=O)N1CCC(N2Cc3ccccc3NC2=O)CC1)C(=O)N1CCN(c2ccncc2)CC1` [olcegepant]: the “survival rate at day 8” value in assay [1] worked out at 20%. Moreover, the “mice rescued at day 4” value in the assay on mouse CLP model (100 mg/kg subcutaneous twice daily, mouse CLP model) is reported as 20%. Besides, in the assay with mouse CLP model (subcutaneous bolus injection, mouse sepsis model), the mice rescued is listed as 2 out of 10. The survival improvement result with pig sepsis model is reported as “did not show any survival improvement”.
